This is an account of results in US9492465B2, “Gold(I) complexes with t-butyl phosphine and dialkyl dithiocarbamate ligands” (KING FAHD UNIVERSITY OF PETROLEUM AND MINERALS, priority 2014, dated 2016).

Holding throughout (type): cell-based
In data set [1] the test system is MCF7 (human breast cancer) cell line. Nature of the data set: in vitro cytotoxicity, MTT assay, MCF7 cell line. To be noted: 24 h exposure, read-out: IC50 Values against MCF7. As to the method: Metal precursor and two synthesized compound (1)and compound (2) were evaluated for their in-vitro cytotoxic activity against MCF7 (human breast cancer), HeLa (human cervical cancer) and A549 (human lung carcinoma) cell lines.
(§1) The cells were seeded at 4×10^3 cells/well in 100 μL DMEM (Dulbecco's Modified Eagle's Medium) containing 10%. FBS (Fetal Bovine Serum) in 96-wells tissue culture plate and incubated for 72 h at 37° C., 5% CO2 in air and 90% relative humidity in CO2 incubator. After incubation, 100 μL of complex (0),(1)and (2) (50, 25, 12.5, 6.25 and 3.12 μg/mL), prepared in DMEM, was added to cells and the cultures were incubated for 24 h. The medium of wells was discarded and 100 μL DMEM containing MTT (3-(4,5-Dimethylthiazol-2-Yl)-2,5-Diphenyltetrazolium Bromide) (5 mg/mL) was added to the wells and incubated in CO2 incubator at 37° C. in dark for 4 h. After incubation, a purple colored formazan (artificial chromogenic dye, product of the reduction of water insoluble tetrazolium salts e.g., MMT by dehydrogenases and reductases) in the cells is produced and appeared as dark crystals in the bottom of the wells. The medium of culture was discarded from each well carefully to avoid disruption of monolayer and 100 μL of Dimethylsufoxide (DMSO) was added in each well. The solution was thoroughly mixed in the wells to dissolve the formazan crystals which ultimately result into a purple solution. The absorbance of the 96-wells plate was taken at 570 nm with Labsystems Multiskan EX-Enzyme-linked immunosorbent assay (EX-ELISA) reader against a reagent blank.
The in vitro cytotoxicity tests were evaluated for the gold(I) precursor, labeled as (0) and two synthesized complexes labeled as (1) and (2)against three human cancer cell lines, MCF7, HeLa and A549 using MTT assay. The dose dependent cytotoxic effect was obtained by the stipulated increase in concentrations of complexes (0), (1) and (2) against the fixed number of human cancer cells. […] FIG. 3 is a graph of the in vitro cytotoxic effect of series of concentrations of compound (0) on MCF7 cell line. […]

Data set [2] has as its system HeLa (human cervical cancer) cell line. Put plainly: in vitro cytotoxicity, MTT assay, HeLa cell line. As to conditions: for IC50: HeLa cell line, 24 h exposure, read-out: IC50 Values against HeLa; for IC50 / percent viability of HeLa: MTT; for percent viability of HeLa: 24 h; for cytotoxic effects on HeLa cell line compared with Auranofin: 50 μg/mL concentration. As to the method:
as §1, with “After incubation, 100 μL of complex (0),(1)and (2) (50, 25, 12.5, 6.25 and 3.12 μg/mL), prepared in DMEM, was added to cells and the cultures were incubated for 24 h.” left out
(§2) The in vitro cytotoxicity tests were evaluated for the gold(I) precursor, labeled as (0) and two synthesized complexes labeled as (1) and (2)against three human cancer cell lines, MCF7, HeLa and A549 using MTT assay.

Data set [3] relates to A549 (human lung carcinoma) cell line. Put plainly: in vitro cytotoxicity, MTT assay, A549 cell line. As to conditions: 24 h exposure, read-out: IC50 Values against A549. As to the method: as §1, with “After incubation, 100 μL of complex (0),(1)and (2) (50, 25, 12.5, 6.25 and 3.12 μg/mL), prepared in DMEM, was added to cells and the cultures were incubated for 24 h.” left out
as §2

Setting [4] is: concentration 3.12 (title μM, head iM).
The mark [5] stands for this setting: concentration 6.25 (title μM, head iM).
[6] abbreviates: concentration 12.5 (title μM, head iM).
[7] abbreviates: concentration 25 (title μM, head iM).
Where [8] appears, read: concentration 50 (title μM, head iM).

As to `CC(C)(C)P(C(C)(C)C)C(C)(C)C.[Cl][Au]` [Complex (0), [Au{P(t-Bu)3}(Cl)], reference compound], the IC50 in data set [1] is 16.7 µM; in data set [2] it was 16 µM; in data set [3], 14.3 µM. The “percent viability of HeLa” value came to 93.6 ± 2.4% in data set [2] (setting [4]); 89.5 ± 2.3% in data set [2] (setting [5]); 81.9 ± 1.9% in data set [2] (setting [6]); 27.3 ± 1.5% in data set [2] (setting [7]); 12.4 ± 1.1% in data set [2] (setting [8]).

Consider `CN(C)C(=S)[S][Au][PH](C(C)(C)C)(C(C)(C)C)C(C)(C)C` [Complex (1), [Au{P(t-Bu)3}(S2CN(CH3)2)]], for which the IC50 in data set [1] came out at 21.1 µM; in data set [2] it was 2.07 µM; in data set [3], 26.9 µM. Also, the “cytotoxic effects on HeLa cell line compared with Auranofin” value in data set [2] was “better than Auranofin”. The “percent viability of HeLa” value in data set [2] (setting [4]) stood at 50.6 ± 1.5%; in data set [2] (setting [5]), 34.4 ± 0.9%; in data set [2] (setting [6]), 19.5 ± 1.4%; in data set [2] (setting [7]) it was 15.3 ± 1.1%; in data set [2] (setting [8]) it was 8.7 ± 1.2%.

`CCN(CC)C(=S)[S][Au][PH](C(C)(C)C)(C(C)(C)C)C(C)(C)C` [Complex (2), [Au{P(t-Bu)3}(S2CN(C2H5)2)]]: the IC50 in data set [1] was 16 µM; in data set [2], 3.21 µM; in data set [3], 19.4 µM. Moreover, the “cytotoxic effects on HeLa cell line compared with Auranofin” value in data set [2] is given as “better than Auranofin”. Further, the “percent viability of HeLa” value in data set [2] (setting [4]) worked out at 53.9 ± 1.9%; in data set [2] (setting [5]), 38.6 ± 1.2%; in data set [2] (setting [6]), 27.9 ± 1.0%; in data set [2] (setting [7]), 22.9 ± 1.2%; in data set [2] (setting [8]), 9.41 ± 1.16%.
